Assay results: patent publication US10681909B2, “Herbicidal triazoles” (FMC Corporation, priority 2014, dated 2020)

How the values were obtained:
[1] = test system: lambsquarters; test: Test D postemergence; assay type: in vivo, Chenopodium album; details: scale 0 to 100
Description: (§1) Seeds of plant species selected from bluegrass (annual bluegrass, Poa annua), blackgrass (Alopecurus myosuroides), canarygrass (Phalaris minor), chickweed (common chickweed, Stellaria media), galium (catchweed bedstraw, Galium aparine), bromegrass, down (downy bromegrass, Bromus tectorum), Russian thistle (Salsola kali), field poppy (Papaver rhoeas), field violet (Viola arvensis), foxtail, green (green foxtail, Setaria viridis), deadnettle (henbit deadnettle, Lamium amplexicaule), ryegrass, Ital. (Italian ryegrass, Lolium multiflorum), kochia (Kochia scoparia), lambsquarters (Chenopodium album), oilseed rape (Brassica napus), pigweed (Amaranthus retroflexus), chamomile (scentless chamomile, Matricaria inodora), speedwell (bird's-eye speedwell, Veronica persica), barley, spring (spring barley, Hordeum vulgare), wheat, spring (spring wheat, Triticum aestivum), buckwheat, wild (wild buckwheat, Polygonum convolvulus), wild mustard (Sinapis arvensis), oat, wild (wild oat, Avena fatua), radish, wild (wild radish, Raphanus raphanistrum), […]), barley, winter (winter barley, Hordeum vulgare), and wheat, winter (winter wheat, Triticum aestivum) were planted into a silt loam soil and treated preemergence with test chemicals formulated in a non-phytotoxic solvent mixture which included a surfactant. At the same time, these species were planted in pots containing Sunshine Redi-Earth® planting medium comprising spaghnum peat moss, vermiculite, starter nutrients and dolomitic limestone and treated with postemergence applications of the test chemicals formulated in the same manner. Plants ranged in height from 2 to 18 cm (1- to 4-leaf stage). Treated plants and controls were maintained in a controlled growth environment for 14 to 21 d after which time all species were compared to controls and visually evaluated. […] A dash (-) response means no test result.

[2] = test system: johnsongrass; test: Test C preemergence; assay type: in vivo, Sorghum halepense; details: for Plant response rating (scale of 0 to 100 where 0 is no effect and 100 is complete control): Johnsongrass, preemergence; for Johnsongrass plant response rating (0 to 100): Preemergence, visual rating after 13 to 15 d
Description: (§2) Seeds of plant species selected from blackgrass (Alopecurus myosuroides), ryegrass, Italian (Italian ryegrass, Lolium multiflorum), wheat (winter wheat, Triticum aestivum), galium (catchweed bedstraw, Galium aparine), corn (Zea mays), crabgrass, large (large crabgrass, Digitaria sanguinalis), foxtail, giant, (giant foxtail, Setaria faberii), johnsongrass (Sorghum halepense), lambsquarters (Chenopodium album), morningglory (Ipomoea coccinea), nutsedge, yellow (yellow nutsedge, Cyperus esculentus), pigweed (Amaranthus retroflexus), ragweed (common ragweed, Ambrosia elatior), soybean (Glycine max), barnyardgrass (Echinochloa crus-galli), oilseed rape (Brassica napus), waterhemp (common waterhemp, Amaranthus rudis), and velvetleaf (Abutilon theophrasti) were planted into a blend of loam soil and sand and treated preemergence with test chemicals formulated in a non-phytotoxic solvent mixture which included a surfactant. At the same time, plants selected from these crop and weed species and also chickweed (common chickweed, Stellaria media), oat, wild (wild oat, Avena fatua), and kochia (Kochia scoparia), were planted in pots containing Sunshine Redi-Earth® planting medium comprising spaghnum peat moss, vermiculite, starter nutrients and dolomitic limestone and treated with postemergence applications of test chemicals formulated in the same manner. Plants ranged in height from 2 to 18 cm (1- to 4-leaf stage) for postemergence treatments. […] A dash (-) response means no test result.

[3] = test system: galium; test: Test A postemergence; assay type: in vivo, Galium aparine; details: 0 to 100 scale (0 no effect, 100 complete control), approx. 10 d
Outline: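 Ratings reflect visual injury after ~10 d in greenhouse, 0 = no effect, 100 = complete control. Postemergence treatment was applied to one- to two-leaf seedlings; preemergence treatment was a directed soil spray at planting.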

[4] = test system: wheat, winter; test: Test D postemergence; assay type: in vivo, Triticum aestivum; details: scale 0 to 100
Description: as §1

[5] = test system: wheat, spring; test: Test D postemergence; assay type: in vivo, Triticum aestivum; details: scale 0 to 100
Description: as §1

[6] = test system: soybean; test: Test C preemergence; assay type: in vivo, Glycine max; details: for Soybean plant response rating (0 to 100): Preemergence, visual rating after 13 to 15 d; for Plant response rating (scale of 0 to 100 where 0 is no effect and 100 is complete control): Soybean, preemergence, 250 g ai/ha
Description: as §2

[7] = test system: ryegrass, Ital.; test: Test D preemergence; assay type: in vivo, Lolium multiflorum; details: for Plant response rating (0 to 100), Ryegrass, Ital.: 16 g ai/ha, 0 is no effect, 100 is complete control; for Plant response rating: Ryegrass, Ital.: scale 0 to 100
Description: as §1

[8] = test system: chamomile; test: Test D postemergence; assay type: in vivo, Matricaria inodora; details: scale 0 to 100
Description: as §1

| Structure (SMILES) | Plant response rating: Lambsquarters ([1]; 16 g ai/ha) | Plant response rating: Lambsquarters ([1]; 31 g ai/ha) | Plant response rating: Lambsquarters ([1]; 62 g ai/ha) | Plant response rating: Lambsquarters ([1]; 125 g ai/ha) | Plant response rating (scale of 0 to 100 where 0 is no effect and 100 is complete control) ([2]; 125 g ai/ha) | Plant response rating (scale of 0 to 100 where 0 is no effect and 100 is complete control) ([2]; 250 g ai/ha) | Johnsongrass plant response rating (0 to 100) ([2]; 31 g ai/ha) | Johnsongrass plant response rating (0 to 100) ([2]; 62 g ai/ha) | Plant response rating, Galium ([3]; 125 g ai/ha) | Plant response rating: Wheat, Winter ([4]; 16 g ai/ha) | Plant response rating: Wheat, Winter ([4]; 31 g ai/ha) | Plant response rating: Wheat, Winter ([4]; 62 g ai/ha) | Plant response rating: Wheat, Winter ([4]; 125 g ai/ha) | Plant response rating: Wheat, Spring ([5]; 16 g ai/ha) | Plant response rating: Wheat, Spring ([5]; 31 g ai/ha) | Plant response rating: Wheat, Spring ([5]; 62 g ai/ha) | Plant response rating: Wheat, Spring ([5]; 125 g ai/ha) | Soybean plant response rating (0 to 100) ([6]; 31 g ai/ha) | Soybean plant response rating (0 to 100) ([6]; 62 g ai/ha) | Plant response rating (scale of 0 to 100 where 0 is no effect and 100 is complete control) [6] | further results |
| --- | --- | --- | --- | --- | --- | --- | --- | --- | --- | --- | --- | --- | --- | --- | --- | --- | --- | --- | --- | --- | --- |
| CCOc1nc(-c2ccc(C(F)(F)F)cc2)nn1Cc1ccnc(C(F)(F)F)c1 [Compound 35, 4-[[5-ethoxy-3-[4-(trifluoromethyl)phenyl]-1H-1,2,4-triazole-1-yl]methyl]-2-(trifluoromethyl)pyridine] | 85 | 95 | 95 | 100 | 95 | 98 | 90 | 95 | 90 | 20 | 35 | 40 | 45 | 25 | 40 | 50 | 50 | 20 | 15 | 65 | Plant response rating, Galium ([3]; 31 g ai/ha): 90; Plant response rating (0 to 100), Ryegrass, Ital. [7]: 35; Plant response rating: Ryegrass, Ital. ([7]; 62 g ai/ha): 65; Plant response rating: Ryegrass, Ital. ([7]; 125 g ai/ha): 70; Plant response rating: Chamomile ([8]; 16 g ai/ha): 70; Plant response rating: Chamomile ([8]; 31 g ai/ha): 75; Plant response rating: Chamomile ([8]; 62 g ai/ha): 95; Plant response rating: Chamomile ([8]; 125 g ai/ha): 100 |
| FC(F)(F)COc1nc(-c2ccc(Cl)cc2)nn1Cc1ccnc(C(F)(F)F)c1 [Compound 31] | 75 | 95 | 85 | 90 | 85 | 95 | 75 | 80 | 70 | 20 | 20 | 20 | 30 | 30 | 35 | 40 | 45 | 5 | 5 | 10 | Plant response rating, Galium ([3]; 500 g ai/ha): 90; Plant response rating (0 to 100), Ryegrass, Ital. [7]: 40; Plant response rating: Ryegrass, Ital. ([7]; 62 g ai/ha): 50; Plant response rating: Ryegrass, Ital. ([7]; 125 g ai/ha): 100; Plant response rating: Chamomile ([8]; 16 g ai/ha): 20; Plant response rating: Chamomile ([8]; 31 g ai/ha): 35; Plant response rating: Chamomile ([8]; 62 g ai/ha): 65; Plant response rating: Chamomile ([8]; 125 g ai/ha): 80 |
